In ChEMBL document CHEMBL1201862, “PubChem BioAssay data set” (2004):
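Exposure lasted 48 hours, with cells grown in 96-well plates and compounds tested at five concentrations. The concentration for 50% growth inhibition is given as GI50.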 Activity calls are given as the source filed them. Cut-off read from the data, not from the text of the source: active = GI50 up to about 1.1 µM and inactive = higher.

How the values were obtained:
Assay in all cases: NCI-60 cell line screen, 48 h
HL-60 = tested on: HL-60
SN12C = tested on: SN12C
NCI-H226 = tested on: NCI-H226
HOP-92 = tested on: HOP-92
CAKI-1 = tested on: CAKI-1
KM12 = tested on: KM12
EKVX = tested on: EKVX
HCT-116 = tested on: HCT-116
SK-MEL-2 = tested on: SK-MEL-2
U-251 = tested on: U-251
MOLT-4 = tested on: MOLT-4
IGROV-1 = tested on: IGROV-1
NCI-H460 = tested on: NCI-H460
786-0 = tested on: 786-0
UACC-257 = tested on: UACC-257
RPMI-8226 = tested on: RPMI-8226
Malme-3M = tested on: Malme-3M
DMS-114 = tested on: DMS-114
UO-31 = tested on: UO-31
OVCAR-4 = tested on: OVCAR-4
LXFL 529 = tested on: LXFL 529
OVCAR-8 = tested on: OVCAR-8
RXF 631 = tested on: RXF 631
SF-268 = tested on: SF-268
HCC 2998 = tested on: HCC 2998
COLO 205 = tested on: COLO 205
K562 = tested on: K562
SNB-78 = tested on: SNB-78
DLD-1 = tested on: DLD-1
ACHN = tested on: ACHN
CCRF-CEM = tested on: CCRF-CEM
KM-20L2 = tested on: KM-20L2
A498 = tested on: A498
LOX IMVI = tested on: LOX IMVI
SK-MEL-5 = tested on: SK-MEL-5
SF-539 = tested on: SF-539
UACC-62 = tested on: UACC-62
HCT-15 = tested on: HCT-15
HT-29 = tested on: HT-29
DMS-273 = tested on: DMS-273
OVCAR-5 = tested on: OVCAR-5
M19-MEL = tested on: M19-MEL
SF-295 = tested on: SF-295
SNB-19 = tested on: SNB-19
NCI-H23 = tested on: NCI-H23
RXF 393 = tested on: RXF 393
SW-620 = tested on: SW-620
A549 = tested on: A549
XF498 = tested on: XF498
SK-MEL-28 = tested on: SK-MEL-28
OVCAR-3 = tested on: OVCAR-3
SR = tested on: SR
M14 = tested on: M14
HOP-18 = tested on: HOP-18
SK-OV-3 = tested on: SK-OV-3
TK-10 = tested on: TK-10
SNB-75 = tested on: SNB-75
HOP-62 = tested on: HOP-62
NCI-H522 = tested on: NCI-H522

c1ccc(C2Nc3ccccc3C3OCCCC23)cc1 (stereo not given)
GI50 (HL-60): 24.7 µM (inactive) | GI50 (SN12C): 38.5 µM (inactive) | GI50 (NCI-H226): 14.8 µM (inactive) | GI50 (HOP-92): 26.4 µM (inactive) | GI50 (CAKI-1): 2.47 µM (inactive) | GI50 (KM12): 25.1 µM (inactive) | GI50 (EKVX): 20.9 µM (inactive) | GI50 (HCT-116): 17.6 µM (inactive) | GI50 (SK-MEL-2): 30.7 µM (inactive) | GI50 (U-251): 17.8 µM (inactive) | GI50 (MOLT-4): 24.9 µM (inactive) | GI50 (IGROV-1): 11.8 µM (inactive) | GI50 (NCI-H460): > 10 µM (inactive) | GI50 (786-0): 27.6 µM (inactive) | GI50 (UACC-257): 30.9 µM (inactive) | GI50 (RPMI-8226): 20.1 µM (inactive) | GI50 (Malme-3M): 30.7 µM (inactive) | GI50 (DMS-114): 21.1 µM (inactive) | GI50 (UO-31): 27 µM (inactive) | GI50 (OVCAR-4): 47.3 µM (inactive) | GI50 (LXFL 529): 7.78 µM (inactive) | GI50 (OVCAR-8): 17.5 µM (inactive) | GI50 (RXF 631): 35.7 µM (inactive) | GI50 (SF-268): 25.6 µM (inactive) | GI50 (HCC 2998): 35.8 µM (inactive) | GI50 (COLO 205): 35.4 µM (inactive) | GI50 (K562): 14.6 µM (inactive) | GI50 (SNB-78): 23.9 µM (inactive) | GI50 (DLD-1): 18.9 µM (inactive) | GI50 (ACHN): 11.3 µM (inactive) | GI50 (CCRF-CEM): 20.2 µM (inactive) | GI50 (KM-20L2): 18.4 µM (inactive) | GI50 (A498): 21.2 µM (inactive) | GI50 (LOX IMVI): 12.8 µM (inactive) | GI50 (SK-MEL-5): 5.06 µM (inactive) | GI50 (SF-539): 16.1 µM (inactive) | GI50 (UACC-62): 11.6 µM (inactive) | GI50 (HCT-15): 27 µM | GI50 (HT-29): > 10 µM (inactive) | GI50 (DMS-273): 28.2 µM (inactive) | GI50 (OVCAR-5): 38.7 µM (inactive) | GI50 (M19-MEL): 42.6 µM (inactive) | GI50 (SF-295): 16.6 µM (inactive) | GI50 (SNB-19): 31.3 µM (inactive) | GI50 (NCI-H23): 32.8 µM (inactive) | GI50 (RXF 393): 18.7 µM (inactive) | GI50 (SW-620): 26 µM (inactive) | GI50 (A549): 20.5 µM (inactive) | GI50 (XF498): 56.5 µM (inactive)

CC12c3ccccc3C(OC=O)(c3ccccc31)C1(C)c3ccccc3C2(OC=O)c2ccccc21
GI50 (HL-60): > 100 µM (inactive) | GI50 (SN12C): > 100 µM (inactive) | GI50 (NCI-H226): > 100 µM (inactive) | GI50 (HOP-92): > 100 µM (inactive) | GI50 (CAKI-1): > 100 µM (inactive) | GI50 (KM12): > 100 µM (inactive) | GI50 (EKVX): > 100 µM (inactive) | GI50 (SK-MEL-28): > 100 µM (inactive) | GI50 (HCT-116): > 100 µM (inactive) | GI50 (SK-MEL-2): > 100 µM (inactive) | GI50 (U-251): 95.5 µM (inactive) | GI50 (MOLT-4): 25.2 µM (inactive) | GI50 (IGROV-1): > 100 µM (inactive) | GI50 (OVCAR-3): > 100 µM (inactive) | GI50 (SR): 18.4 µM (inactive) | GI50 (NCI-H460): 81.3 µM (inactive) | GI50 (M14): > 100 µM (inactive) | GI50 (786-0): > 100 µM (inactive) | GI50 (UACC-257): > 100 µM (inactive) | GI50 (RPMI-8226): > 100 µM (inactive) | GI50 (Malme-3M): > 100 µM (inactive) | GI50 (DMS-114): > 100 µM (inactive) | GI50 (HOP-18): > 100 µM (inactive) | GI50 (UO-31): > 100 µM (inactive) | GI50 (OVCAR-4): > 100 µM (inactive) | GI50 (LXFL 529): > 100 µM (inactive) | GI50 (OVCAR-8): > 100 µM (inactive) | GI50 (SK-OV-3): > 100 µM (inactive) | GI50 (TK-10): > 100 µM (inactive) | GI50 (RXF 631): > 100 µM (inactive) | GI50 (SF-268): > 100 µM (inactive) | GI50 (HCC 2998): > 100 µM (inactive) | GI50 (COLO 205): > 100 µM (inactive) | GI50 (SNB-75): 81.1 µM (inactive) | GI50 (K562): > 100 µM (inactive) | GI50 (SNB-78): > 100 µM (inactive) | GI50 (DLD-1): > 100 µM (inactive) | GI50 (ACHN): > 100 µM (inactive) | GI50 (CCRF-CEM): 36.6 µM (inactive) | GI50 (KM-20L2): > 100 µM (inactive) | GI50 (A498): > 100 µM (inactive) | GI50 (LOX IMVI): > 100 µM (inactive) | GI50 (SK-MEL-5): > 100 µM (inactive) | GI50 (UACC-62): > 100 µM (inactive) | GI50 (HCT-15): > 100 µM | GI50 (HT-29): > 100 µM (inactive) | GI50 (DMS-273): 75.7 µM (inactive) | GI50 (OVCAR-5): > 100 µM (inactive) | GI50 (M19-MEL): > 100 µM (inactive) | GI50 (SF-295): > 100 µM (inactive) | GI50 (HOP-62): 48.5 µM (inactive) | GI50 (SNB-19): > 100 µM (inactive) | GI50 (NCI-H23): > 100 µM (inactive) | GI50 (RXF 393): > 100 µM (inactive) | GI50 (SW-620): > 100 µM (inactive) | GI50 (A549): > 100 µM (inactive) | GI50 (NCI-H522): > 100 µM (inactive)

CC(=O)c1ccc(OCC(O)CO)cc1 (stereo not given)
GI50 (HL-60): > 100 µM (inactive) | GI50 (SN12C): > 100 µM (inactive) | GI50 (NCI-H226): > 100 µM (inactive) | GI50 (HOP-92): > 100 µM (inactive) | GI50 (CAKI-1): > 100 µM (inactive) | GI50 (KM12): > 100 µM (inactive) | GI50 (EKVX): > 100 µM (inactive) | GI50 (SK-MEL-28): > 100 µM (inactive) | GI50 (HCT-116): 17.3 µM (inactive) | GI50 (U-251): 49.8 µM (inactive) | GI50 (MOLT-4): > 100 µM (inactive) | GI50 (IGROV-1): > 100 µM (inactive) | GI50 (OVCAR-3): > 100 µM (inactive) | GI50 (NCI-H460): > 100 µM (inactive) | GI50 (M14): > 100 µM (inactive) | GI50 (786-0): 25.6 µM (inactive) | GI50 (UACC-257): > 100 µM (inactive) | GI50 (RPMI-8226): 62.7 µM (inactive) | GI50 (Malme-3M): > 100 µM (inactive) | GI50 (DMS-114): 47 µM (inactive) | GI50 (HOP-18): > 100 µM (inactive) | GI50 (UO-31): > 100 µM (inactive) | GI50 (OVCAR-4): > 100 µM (inactive) | GI50 (LXFL 529): 51.8 µM (inactive) | GI50 (OVCAR-8): > 100 µM (inactive) | GI50 (SK-OV-3): > 100 µM (inactive) | GI50 (TK-10): > 100 µM (inactive) | GI50 (RXF 631): > 100 µM (inactive) | GI50 (SF-268): > 100 µM (inactive) | GI50 (HCC 2998): > 100 µM (inactive) | GI50 (COLO 205): 35.6 µM (inactive) | GI50 (SNB-75): > 100 µM (inactive) | GI50 (K562): 61.9 µM (inactive) | GI50 (SNB-78): > 100 µM (inactive) | GI50 (DLD-1): 45.8 µM (inactive) | GI50 (ACHN): > 100 µM (inactive) | GI50 (CCRF-CEM): > 100 µM (inactive) | GI50 (KM-20L2): > 100 µM (inactive) | GI50 (A498): > 100 µM (inactive) | GI50 (SK-MEL-5): > 100 µM (inactive) | GI50 (SF-539): > 100 µM (inactive) | GI50 (UACC-62): > 100 µM (inactive) | GI50 (HCT-15): > 100 µM | GI50 (HT-29): 61.4 µM (inactive) | GI50 (DMS-273): > 100 µM (inactive) | GI50 (OVCAR-5): > 100 µM (inactive) | GI50 (M19-MEL): > 100 µM (inactive) | GI50 (SF-295): > 100 µM (inactive) | GI50 (HOP-62): > 100 µM (inactive) | GI50 (SNB-19): > 100 µM (inactive) | GI50 (NCI-H23): > 100 µM (inactive) | GI50 (SW-620): 14.9 µM (inactive) | GI50 (A549): 94.2 µM (inactive) | GI50 (NCI-H522): > 100 µM (inactive)
